According to US10183014B2, “Ocular formulations for drug-delivery and protection of the anterior segment of the eye” (PanOptica, Inc., priority 2014, dated 2019):
“And” between values parts separate entries of the source, which are not always exact repeats. Equal entries are not always repeated. Where two headings read alike, the source gives them in different places.

What was measured:
[1] = Ocular pharmacokinetics of formulations, Example 20-4; assay type: in vivo, Dutch Belted rabbits; details: Dutch Belted, rabbit, topical, PSD 30 μm/XL, HPMC 0.08%, glycerol 2.5%, HEC 0.2%, VitK3 1 μM, pH ≈7.5, QD, Day 5, 1 hr post dose
Method: The study design (Table 18-1) consisted of forty-nine (49) Dutch Belted rabbits, each receiving a 30 μL bilateral topical ocular dose.
Ocular sampling occurred one hour following the first daily dose on Day 5 for all groups. Whole blood samples using K2EDTA as an anticoagulant were collected from all animals on Day 5, 1 hour post dose. The whole blood was placed on ice until samples were spun in a centrifuge to separate the plasma. Aqueous humor, conjunctiva, cornea, central retina, peripheral retina, central choroid, and peripheral choroid samples were collected following necropsy. Samples were then frozen at −70° C. or lower. For all Groups 1-16, plasma, central retina, central choroid, and cornea samples were assayed for PAN-90806.

[2] = Particle size distribution by laser diffraction light scattering; assay type: physicochemical; details: API form Freebase
Method: Particle size distribution can be analyzed using laser diffraction light scattering, e.g., with a Horiba LA-950 V2. Generic assumptions are made in setting conditions and the refractive index value. The distributions are volume based. Sample density is adjusted to a generic range of percent transmission on the blue LED light source. A small sample cell (filled with water) can be used rather than the flow through cell, to minimize sample quantity.
Particle size distribution was analyzed using laser diffraction light scattering with a Horiba LA-950 V2. Generic assumptions were made in setting conditions and the refractive index value. The distributions were volume based. Sample density was adjusted to a generic range of percent transmission on the blue LED light source. A small sample cell (filled with water) was used rather than the flow through cell, to minimize sample quantity.

[3] = biological target: T1, EGFR (Homo sapiens, UniProt P00533); experiment: EGFR tyrosine phosphorylation assay in hTCEpi cells with a second active agent; assay type: cell-based; details: vitamin K 50 μM, nicotinic acid 10 μM or nicotinamide 10 μM, 4 hours pre-treatment; EGF 50 ng/ml
T1 construct: endogenous in cells; host or cells: hTCEpi (immortalized corneal epithelial cells)
T1 sequence (P00533 25-1210): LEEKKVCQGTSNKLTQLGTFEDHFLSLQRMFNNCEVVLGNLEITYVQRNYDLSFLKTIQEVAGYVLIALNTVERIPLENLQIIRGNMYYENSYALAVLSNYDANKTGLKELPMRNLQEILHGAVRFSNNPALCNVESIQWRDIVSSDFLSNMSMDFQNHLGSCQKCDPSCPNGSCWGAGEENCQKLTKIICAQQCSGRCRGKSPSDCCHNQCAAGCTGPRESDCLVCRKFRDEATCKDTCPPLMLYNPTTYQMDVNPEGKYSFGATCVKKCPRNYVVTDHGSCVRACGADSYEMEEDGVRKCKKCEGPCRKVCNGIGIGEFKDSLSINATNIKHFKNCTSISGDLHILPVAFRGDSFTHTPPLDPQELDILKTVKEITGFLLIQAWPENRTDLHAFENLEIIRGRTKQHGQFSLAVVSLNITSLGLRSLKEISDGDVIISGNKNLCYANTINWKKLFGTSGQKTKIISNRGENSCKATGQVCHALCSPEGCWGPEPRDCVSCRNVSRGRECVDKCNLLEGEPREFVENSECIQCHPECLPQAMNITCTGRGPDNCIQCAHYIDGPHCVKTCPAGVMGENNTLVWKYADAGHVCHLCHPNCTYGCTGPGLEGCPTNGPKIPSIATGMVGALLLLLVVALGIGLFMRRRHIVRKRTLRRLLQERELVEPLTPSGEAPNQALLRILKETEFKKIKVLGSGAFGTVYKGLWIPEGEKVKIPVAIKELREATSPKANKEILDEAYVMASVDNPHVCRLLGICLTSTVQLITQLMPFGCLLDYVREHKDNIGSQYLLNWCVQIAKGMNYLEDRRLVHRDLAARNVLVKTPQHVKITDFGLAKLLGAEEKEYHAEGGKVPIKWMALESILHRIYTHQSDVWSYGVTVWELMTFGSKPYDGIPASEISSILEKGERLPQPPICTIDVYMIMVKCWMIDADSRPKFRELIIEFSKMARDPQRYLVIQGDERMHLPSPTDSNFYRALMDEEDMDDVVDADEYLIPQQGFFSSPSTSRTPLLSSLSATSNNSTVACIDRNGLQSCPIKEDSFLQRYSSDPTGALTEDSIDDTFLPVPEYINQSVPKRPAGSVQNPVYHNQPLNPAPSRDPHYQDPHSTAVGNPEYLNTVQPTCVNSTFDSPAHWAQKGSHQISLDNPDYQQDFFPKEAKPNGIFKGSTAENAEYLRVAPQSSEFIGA
Method: An EGFR tyrosine assay in corneal epithelial cells is run to determine if Vitamin K or nicotinic acid/nicotinamide can overcome inhibition of EGFR and if there is an increase in EGFR activity. […] Cells are harvested cells and immunoblotted for determination of phosphorylated EGFR (tyrosine 1068 and tyrosine 1045) and total EGFR concentration which was used to determine receptor activity (IC50).
The cells were then incubated with EGF (50 ng/ml) for 15 minutes. Cells were harvested and cell lysates were immunoblotted for determination of phosphorylated EGFR (tyrosine 1068 and tyrosine 1045) and total EGFR concentration.

[4] = excipient PVP K-29/32, roller speed high, media size 0.8 mm, particles under storage 1 day, RT
[5] = excipient PVP K-29/32, roller speed high, media size 0.8 mm, particles under storage 15 days, RT
[6] = excipient Pluronic F-127, milling not given, particles under storage 6 days, 40° C.
[7] = excipient Pluronic F-127, roller speed high, media size 0.8 mm, particles under storage 3 days, RT
[8] = excipient Pluronic F-127, roller speed low, media size 3 mm
[9] = excipient Tween 80, milling not given
[10] = excipient Tween 80, roller speed high, media size 0.8 mm, particles under storage 28 days, RT

With `NC(=O)c1c(OCc2c(F)cc(Br)cc2F)nsc1NC(=O)NCCCCN1CCCC1` [Formula II] the concentration at 1 h ([1]; central choroid, 4 mg/mL (30 μL per eye, bilateral), Group 4: 4 mg/mL FB suspension, read-out: Central Choroid concentration) was 203 nM, the concentration at 1 h ([1]; central choroid, Group 5: 6 mg/mL FB suspension, read-out: Central Choroid concentration) was 203 nM and the concentration at 1 h ([1]; central retina, 4 mg/mL (30 μL per eye, bilateral), Group 4: 4 mg/mL FB suspension, read-out: Central Retina concentration) was 38.4 nM. For the same molecule, the concentration at 1 h ([1]; central retina, Group 5: 6 mg/mL FB suspension, read-out: Central Retina concentration) was 47.9 nM, the concentration at 1 h ([1]; cornea, 4 mg/mL (30 μL per eye, bilateral), Group 4: 4 mg/mL FB suspension, read-out: Cornea concentration) was 21300 nM and the concentration at 1 h ([1]; cornea, Group 5: 6 mg/mL FB suspension, read-out: Cornea concentration) was 23800 nM. The concentration at 1 h ([1]; plasma, 4 mg/mL (30 μL per eye, bilateral), Group 4: 4 mg/mL FB suspension, read-out: Plasma concentration) was 3.27 nM, the concentration at 1 h ([1]; plasma, Group 5: 6 mg/mL FB suspension, read-out: Plasma concentration) was 3.91 nM and the “PSD (Particle Size Distribution) Mean” value [2, 4] was about 210 nm. For the same molecule, the “PSD (Particle Size Distribution) Median” value [2, 4] was about 150 nm, the “PSD (Particle Size Distribution) Mean” value [2, 5] was about 170 nm and the “PSD (Particle Size Distribution) Median” value [2, 5] was about 130 nm. The “PSD (Particle Size Distribution) Mean” value [2, 6] was about 3100 nm, the “PSD (Particle Size Distribution) Median” value [2, 6] was about 2500 nm and the “PSD (Particle Size Distribution) Mean” value [2, 7] was about 130 nm. The “PSD (Particle Size Distribution) Median” value [2, 7] was about 120 nm, the “PSD (Particle Size Distribution) Mean” value [2, 8] was ~8100 nm and ~4700 nm and the “PSD (Particle Size Distribution) Median” value [2, 8] was ~6200 nm and ~4400 nm. The “PSD (Particle Size Distribution) Mean” value [2, 9] was about 2000 nm, the “PSD (Particle Size Distribution) Median” value [2, 9] was about 300 nm and the “PSD (Particle Size Distribution) Mean” value [2, 10] was about 370 nm. For the same molecule, the “PSD (Particle Size Distribution) Median” value [2, 10] was about 160 nm and the “PSD (Particle Size Distribution) Median” value ([2]; excipient Tween 80, roller speed low, media size 3 mm) was ~5500 nm and ~3900 nm and ~3700 nm and ~3500 nm.
In the case of `O=C(O)c1cccnc1` [nicotinic acid], the “Effect on Formula I or II compound-mediated EGFR inhibition” value [3] is reported as “overcome”.
For `NC(=O)c1cccnc1` [nicotinamide], the “Effect on Formula I or II compound-mediated EGFR inhibition” value [3] was “overcome”.
